The conditions of series [1]: cited from earlier work.
The subject of series [2] is N-CAM 180. Briefly: Incubation of human occipital cortex membrane and cytosolic fractions with protease inhibitors, N-CAM immunoblot. The series is classed as biochemical. An excerpt:
Fresh or frozen human brain cortex is dissected free of pia mater layer and any obvious blood vessels on the surface of the cortex. Pulverize the cortex in a sufficient quantity of liquid Nitrogen to a friable state with mortar and pestle, and accurately weigh out replicate samples of pulverized brain sample while keeping all vessels frozen in dry ice. Place the quantity of protease inhibitor or neuraminidase inhibitor in a PBS buffer of final pH 7.4 and maintain buffer on ice. Add the varying concentrations and combinations of protease inhibitors and/or neuraminidase inhibitors to separate pulverized brain in tubes in a final volume to yield a 20% weight of brain tissue/buffer volume. Allow the tubes to adjust to room temperature, and incubate at standard room temperature conditions for varying time points. The end-point of the assay is accomplished by addition of a 2× denaturing reducing sample buffer such as commercially available and previously published, and heat 3 min at 95 degrees C. Proceed to standard SDS-PAGE and immunoblot conditions to determine the breakdown products of parent molecule N-CAM. Use appropriate control incubations for temperature breakdown and buffer breakdown without protease inhibitors and/or neuraminidase inhibitors. The results can be quantitatively assessed by densitometry of immunoblots as previously published which yields a linear response within a loading range of proteins (˜1-100 μg of protein) depending on gel capacity used and concentrations of antibody and detection substrates which are empirically determined with standard methods. […]
Membrane and cytosolic fractions from human occipital cortex were incubated in the presence of protease inhibitors (10 μM final concentration) for varying lengths of time (typically 2, 4, 8, 16, 32, and 48 hrs at room temperature). An aliquot was analyzed by gel electrophoresis and immunoblotted with N-CAM 3732 antibody. […] The supernatant was labeled “membrane extract.” Protein content of the “cytosolic” and “membrane extract” sample was measured by the micro bicinchoninic acid method (Pierce, Ill.).

For series [3] the following is noted: cited from earlier work. This is another data set of the same source.
The test system of series [4] is N-CAM 180. Kind of series: Neuraminidase treatment of cytosolic and membrane brain extracts, N-CAM immunoblot. The series is classed as biochemical, human. Conditions: 1.25 U/ml diluted enzyme, 18 hrs at 37° C., FIG. 7A. Here is the method: Membrane “extracts” and “cytosolic” tissue extracts of human occipital cortex were prepared as described^8 with slight modifications^9. Frozen pulverized occipital cortex ˜50 g was suspended in 1000 ml of cold 0.05M Tris buffered saline (TBS, pH 7.4) with protease inhibitors: antipain (4 μg/ml), pepstatin A (2 μg/ml), aprotinin (2 μg/ml), leupeptin (2 μg/ml), and phenyl methyl sulfonyl fluoride (0.1 μg/ml). The solution was homogenized (Tissumizer; Tekmar, Cincinnati Ohio) for 5×10 sec pulses in a 4° C. ice bath and 30 sec cooling interval between pulses. The homogenate was centrifuged for 30 min at 42,000×g at 4° C. The clear supernatant with visible lipid removed was the “cytosolic” fraction. The pellet was resuspended and washed with cold TBS-protease inhibitor cocktail and re-centrifuged at 42,000×g for 30 min at 4° C. […] The supernatant was labeled “membrane extract.” Protein content of the “cytosolic” and “membrane” sample was measured by the micro bicinchoninic acid method (Pierce, Ill.).
Neuraminidase treatment of cytosolic and membrane brain extracts was accomplished by using neuraminidase enzyme from Vibrio cholerae (˜2.49 Units/ml, Fluka) in pH 5.5, 0.15M NaCl, 4 mM CaCl2 that was diluted with 50 mM sodium acetate, 4 mM CaCl2 and 0.2 mM EDTA, (pH 5.0; Buffer A) to 1.25 U/ml. […] Samples were analyzed by immunoblot for N-CAM with antibody 3732. […]

“Also recorded” adds a separate entry of the source. Where two headings read alike, the source gives them in different places.

`CC(C)CN(C[C@@H](O)[C@H](Cc1ccccc1)NC(=O)O[C@H]1CCOC1)S(=O)(=O)c1ccc(N)cc1` [Amprenavir]: in series [1] (high-fat meal), the “effect of a high-fat meal on absorption of the drug” value was “decrease the absorption”. The “severe or life-threatening rash” value is reported as 1% in series [1] (of recipients) and 4% in series [1] (of those who develop a rash). In addition, the “severe and life-threatening skin reactions, including Stevens-Johnson syndrome” value in series [1] (patients treated) is 1%.
Turning to `CC(=O)N[C@@H](CC(C)C)C(=O)N[C@@H](CC(C)C)C(=O)N[C@H](C=O)CCCNC(=N)N` [leupeptin, Acetyl-leucyl-leucyl-arginal], in the series on N-CAM 180 [2] (10 μM final concentration, compared with the other protease inhibitors assayed individually), the “activity in prevention of the breakdown of N-CAM 180 and subsequent release/accumulation of cN-CAM” value is given as “most activity; also recorded: most effective”. Further, the “inhibition of the increase in cN-CAM” value in the series with N-CAM 180 [2] (10 μM, room temperature, over the course of 48 hr, FIG. 8B and C) is given as “completely inhibited”. For the same compound, the “potency compared to the protease inhibitor cocktail” value with N-CAM 180 [2] (assayed in human brain) is listed as “most potent”.
For Aprotinin, the tolerability in humans result in series [3] (clinical trials) is listed as “generally well tolerated”. In series [3] (patients receiving aprotinin for the first time), the hypersensitivity reactions is recorded as less than 0.1 to 0.6%.
For “neuraminidase: neuraminidase enzyme from Vibrio cholerae (Fluka)”, in the series on N-CAM 180 [4], the “effect on N-CAM 180 in membrane extracts” value is “removal of higher MW N-CAM 180”.
